logP data for 12 molecules are collected here from the OPERA property sets (Mansouri et al. 2018).

Molecules are shown by their SMILES.

By logP is commonly meant the decadic logarithm of the partition coefficient of the neutral form, usually between octanol and water. The low end stands for lower lipophilicity, the high end for higher lipophilicity. `CC(C)NCC(O)COc1ccc(CCOCC2CC2)cc1` (configuration not stated) had a logP of 2.81.

In turn, `CC(C)NCC(O)COc1ccc(COCCOC(C)C)cc1` (configuration not stated) gave a logP of 1.87.

With `CC(=O)c1cc2cccc(OCC(O)CNC(C)C)c2o1` (configuration not stated), the lipophilicity (logP) was determined as 2.02.

`CC(C)NCC(O)COc1ccccc1C1CC1` (configuration not stated) showed a logP of 3.07.

Molecule `CNC(=O)COc1ccccc1OCC(O)CNC(C)(C)C` (configuration not stated) returned a log partition coefficient (logP) of 1.36.

Molecule `CC(=O)Nc1ccc(OCC(O)CNC(C)C)c(C(C)=O)c1` (configuration not stated) showed a logP of 0.94.

On to `Cc1ccccc1OCC(O)CNCC(O)COc1ccccc1C` (configuration not stated), for which the logP was found to be 3.67.

Molecule `COc1ccccc1OCC(O)CNC(C)C` (configuration not stated) registered a logP of 1.69.

Consider `C#CCOc1ccccc1OCC(O)CNC(C)(C)C` (configuration not stated), for which the log partition coefficient (logP) stood at 2.32.

`CC(C)NC[C@H](O)COc1ccc(OCCOCCc2ccc(F)cc2)cc1` gave a logP of 3.7.

`CC(=O)Nc1ccc(OCC(O)CNCC(O)COc2ccccc2)cc1` (configuration not stated) displayed a logP of 1.39.

Take `Cc1cc2c(OCC(O)CNC(C)C)cccc2[nH]1` (configuration not stated): the logP was 2.3.
